Measured values from patent US20070270436A1, “NOVEL AMINO- AND IMINO-ALKYLPIPERAZINES” (Recordati Ireland Limited, priority 2006, published 2007).
Read-outs that look alike come from different tables or passages of the source.

Key:
5-HT1A receptors = target: T1, 5-HT1A receptors (Rattus norvegicus, UniProt P19327); test: Inhibition of serotonergic syndrome (forepaw treading) induced by 8-OH-DPAT in rats (post-synaptic antagonism); assay type: in vivo; settings: for inhibition at 10 mg/kg: rat
T1 construct: from tissue; host or cells: living male Sprague-Dawley rats (whole animal, behavioural read-out)
T1 sequence (P19327 1-422): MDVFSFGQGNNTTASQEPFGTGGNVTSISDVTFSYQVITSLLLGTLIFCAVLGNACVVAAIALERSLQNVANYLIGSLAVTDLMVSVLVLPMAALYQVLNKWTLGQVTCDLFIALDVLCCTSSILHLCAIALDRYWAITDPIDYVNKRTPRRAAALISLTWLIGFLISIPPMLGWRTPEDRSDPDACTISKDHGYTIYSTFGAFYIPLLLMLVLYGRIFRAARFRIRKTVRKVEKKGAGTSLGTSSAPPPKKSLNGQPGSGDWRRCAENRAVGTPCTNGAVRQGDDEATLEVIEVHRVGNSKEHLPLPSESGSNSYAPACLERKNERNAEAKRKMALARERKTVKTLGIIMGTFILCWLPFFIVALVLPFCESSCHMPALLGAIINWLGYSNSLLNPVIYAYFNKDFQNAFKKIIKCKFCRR
Experimental: The inhibitory effect of 5-HT1A-receptor antagonists on stereotyped forepaw treading induced in rats by subcutaneous injection of 8-OH-DPAT was evaluated by the method of Tricklebank (Tricklebank et al., Eur. J. Pharmacol., 117: 15, 1985) with minor modifications as described below.
Male Sprague-Dawley rats [Crl: CD® (SD) IGS BR] weighing 150-175 g from Charles River Italia were used. The animals were housed with free access to food and water and maintained on a forced 12-hour-light/12-hour-dark cycle at 22-24° C. of temperature. On the day of the experiment, the rats were placed singly in clear plastic containers, 10-15 minutes before oral administration of the vehicle or compounds to be tested. For evaluation of antagonistic activity, the compounds were administered 1 and 4 hours before induction of stereotypy by 8-OH-DPAT (1 mg/kg subcutaneously). Observation sessions lasted 30 seconds and began 3 minutes after 8-OH-DPAT treatment and were repeated every 3 minutes over a period of 15 minutes.
The appearance of the symptoms induced by postsynaptic stimulation of 5-HT1A receptors was noted, and the intensity was scored using an intensity scale in which: 0=absent, 1=equivocal, 2=present and 3=intense. Behavioural scores for treated rats were accumulated throughout the observation time (5 observation periods) and expressed as mean values of 4 rats/dose. Change in mean values of treated animals in comparison with control (vehicle) group, expressed as per-cent inhibition, was used to quantify the antagonistic activity.
In order to quantitate the potency of the compound of Example 24 in inhibiting the stereotypy (forepaw treading) induced by 8-OH-DPAT, an ED50 value (dose inhibiting by 50% the forepaw treading) was evaluated by means of linear regression using the least square method.

[1] = target: T2, human 5HT1A-serotonergic receptor (Homo sapiens, UniProt P08908); test: Radioligand binding to recombinant 5-HT1A receptor ([3H]8-OH-DPAT, HeLa cell membranes); settings: 1 nM [3H]8-OH-DPAT; Ki from IC50 by the Cheng equation; read-out: Ki (nM), binding affinity for 5HT1A receptor
T2 construct: expressed in transfected cells; host or cells: HeLa (human), stably transfected; membranes
T2 sequence (P08908 1-422): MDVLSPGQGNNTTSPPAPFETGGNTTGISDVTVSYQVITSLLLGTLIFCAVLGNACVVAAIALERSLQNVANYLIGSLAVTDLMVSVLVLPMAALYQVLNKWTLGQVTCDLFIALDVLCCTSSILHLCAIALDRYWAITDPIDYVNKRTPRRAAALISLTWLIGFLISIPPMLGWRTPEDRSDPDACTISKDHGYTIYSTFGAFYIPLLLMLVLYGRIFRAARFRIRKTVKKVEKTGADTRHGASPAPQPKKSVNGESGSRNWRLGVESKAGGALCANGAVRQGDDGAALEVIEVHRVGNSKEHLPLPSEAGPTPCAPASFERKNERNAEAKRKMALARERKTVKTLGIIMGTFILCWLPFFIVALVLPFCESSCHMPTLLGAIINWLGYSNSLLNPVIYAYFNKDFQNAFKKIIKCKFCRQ
In short: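 Membranes from HeLa cells stably expressing human 5-HT1A incubated 30 min at 30 °C with 1 nM [3H]8-OH-DPAT in 50 mM Tris pH 7.4, 2.5 mM MgCl2, 10 μM pargyline; non-specific binding with 10 μM 5-HT. Filtration read-out; IC50 by curve fitting, converted to Ki via Cheng-Prusoff.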

% Inhibition of forepaw treading, 1 h (5-HT1A receptors; 10 mg/kg p.o., 1 h before 8-OH-DPAT 1 mg/kg s.c.) [%]	% Inhibition of forepaw treading, 4 h (5-HT1A receptors; 10 mg/kg p.o., 4 h before 8-OH-DPAT 1 mg/kg s.c.) [%]	Ki [1] [nM]	ED50 (dose inhibiting by 50% the forepaw treading) (95% CL), 1 hour (5-HT1A receptors; 1 hour after oral administration)	ED50 (dose inhibiting by 50% the forepaw treading) (95% CL), 4 hours (5-HT1A receptors; 4 hours after oral administration)	inhibition at 10 mg/kg (5-HT1A receptors; 10 mg/kg p.o., 1 h before 8-OH-DPAT 1 mg/kg s.c., read-out: % Inhibition of forepaw treading, 1 h) [%]	inhibition at 10 mg/kg (5-HT1A receptors; 10 mg/kg p.o., 4 h before 8-OH-DPAT 1 mg/kg s.c., read-out: % Inhibition of forepaw treading, 4 h) [%]	SMILES
80	69	0.86					COc1ccccc1N1CCN(CCC(c2ccccc2F)C(C2CCCCC2)N(C)C(C)=O)CC1 (racemic) [Example 16, (RS,SR)- and (RS,RS)-N-{-1-Cyclohexyl-2-(2-fluorophenyl)-4-[4-(2-methoxyphenyl)piperazin-1-yl]butyl}-N-methylacetamide]
		1.23	2.86 (2.12-3.8) mg/kg p.o.	3.67 (2.81-4.93) mg/kg p.o.	100	90	COc1ccccc1N1CCN(CC[C@@H](c2ccccc2F)[C@H](NC(=S)N(C)C)C2CCCCC2)CC1 (racemic) [Example 24, 3-{(RS,SR)-1-Cyclohexyl-2-(2-fluorophenyl)-4-[4-(2-methoxyphenyl)-piperazin-1-yl]butyl}-1,1-dimethylthiourea]
